Consider one compound from US20190091180A1, “DOSAGE REGIMEN FOR A S1P RECEPTOR AGONIST” (Novartis AG, priority 2008, published 2019).

In one data set the test system is multiple sclerosis. The conditions noted are these: humans; cited from earlier work.
For data set [1], the system named is healthy subjects. Nature of the data set: Double-blind, placebo-controlled dose titration clinical study; heart rate by continuous telemetry. The data set is classed as in vivo, human. The method, then:
A single-center, double-blind, placebo-controlled, dose titration, once-daily, multiple-oral-dose clinical study in healthy subjects was conducted to evaluate the effect of a dosage regimen of FTY720 according to the present invention. A total of 36 subjects were randomly assigned to one of the three groups. Each subject participated in a screening period of maximal 21 days, a baseline period (Day −1), a 9-day dose-administration period, and clinical study completion assessments on Day 10. Subjects were assigned to one of the three groups (dose titration regimen group, placebo control group, or active control group) and received the once daily dose in a double-blinded manner (Table 1). In the dose titration group, increasing once daily doses of Compound A (FTY720), starting at 0.125 mg o.d. and ending at the maximal therapeutic dose of 1.25 mg o.d. were administered on days 1 to 9 of the study according to the schedule shown in Table 1 below. The placebo control group received placebo through out the duration of the study and the active control group received a once daily dose of 1.25 mg of FTY720 on days 1 to 9. [table] Pharmacodynamic and safety assessments are performed up to 24 hours post last dose. Heart rate is monitored via telemetry on Day −1 through Day 10, 24 hour after the last dosing. Heart rhythm is assessed via 24 hr continuous holter monitoring on Day −1, Day 1, and Day 9. For each dosing for each subject, the drug is administered as closely as practically possible to the time administered on Day −1. Safety assessments includes physical examinations, vital signs and body measurements, 12-lead ECG evaluations, standard clinical laboratory evaluations hematology, blood chemistry, urinalysis, adverse event and serious adverse event monitoring. Systolic and diastolic blood pressure and pulse are measured after the subject has rested quietly in the sitting position for at least 3 minutes. Blood pressure is measured at the same arm on each occasion. Standard 12-lead ECGs are recorded at Screening, baseline, 4 hours post-dose on Day 1 and Day 8, and at Study Completion. The variables recorded are: date and time of ECG, heart rate, PR interval, QT interval (uncorrected), QTcB, QRS duration. The overall interpretation is collected with a Yes/No statement to confirm if any clinically relevant abnormalities are present, which needs to be specified further. Subjects remain on continuous telemetry, starting before breakfast on Day −1 and proceeding throughout the administration period up to Day 10 (24 hour after the last dose). Over this ten day duration of continuous heart rate collection for each subject, one heart rate value is obtained every minute (‘minute unit heart rate’), representing the average heart rate value over that minute. The heart rate database for each subject contains approximately 14,400 data points (10 days×24 hr×60 min). 24-hour continuous Holter-ECG data are captured via a digital Holter monitor (12-lead, on Days −1, 1, 6, and 8), and transferred for interpretation and reporting. Holter monitoring starts approximately at 7:00 and the time of dose administration is regarded as the time “0 hours”. Holter “cuts” are derived from the dataset at 1 hour intervals starting from Day −1 and continuing for 24 hours or the end of the cleaned Holter monitoring dataset. Cardiac conduction intervals: arrhythmia monitoring includes the frequency and duration of sinus pauses (>2 sec and >3 sec) and atrio-ventricular blocks. Frequency and duration of atrial and ventricular ectopy and sinus rhythm are also recorded. The daily chronotropic effect is defined as the percent decrease in HRmin (minimum heart rate) between two consecutive days. It is calculated on days 1 to 9.

The subject of data set [2] is healthy subjects. Particulars: administration of 1.25 mg of FTY720; cited from earlier work.

The structures appear in SMILES notation.

In the case of `CCCCCCCCc1ccc(CCC(N)(CO)CO)cc1.Cl` [FTY720, 2-amino-2-[2-(4-octylphenyl)ethyl]propane-1,3-diol], in the data set with multiple sclerosis, the “efficacy in the treatment of multiple sclerosis” value is listed as “has been demonstrated in humans”. Besides, the “additional decrease in daily average heart rate from Day 1 to Day 2” value in the data set with healthy subjects [1] (active control group, 1.25 mg once daily, Day 1 to Day 2) is recorded as “approximately 3 BPM”. The “decrease in daily average heart rate from Day -1 to Day 1” value in the data set on healthy subjects [1] (active control group, 1.25 mg once daily, Day -1 to Day 1) was “approximately 8 BPM”. Further, in the data set with healthy subjects [1] (dose titration group 0.125/0.25/0.5/1.25 mg o.d., over the eight day course of the titration), the “gradual decrease in daily average heart rate per day” value is 1-2 BPM per day. For the same compound, the “heart rate on initiation of 1.25 mg on Day 8 compared to the preceding days” value in the data set with healthy subjects [1] (dose titration group, Day 8, first 1.25 mg dose) is reported as “does not result in dip in heart rate”. For the same compound, the “daily minimum heart rates during the course of the study” value in the data set on healthy subjects [1] (dose titration regimen compared with 1.25 mg once daily group) is on record as “improved daily minimum heart rates”. Also, the “negative chronotropic effect on Day 1 of treatment initiation” value with healthy subjects [1] (dose titration regimen versus 1.25 mg from Day 1) is “attenuates the negative chronotropic effect”. Also, the “decrease in heart rate” value with healthy subjects [2] is reported as “approximately 8 beats/min (BPM)”.
